Measured values published in ChEMBL document CHEMBL1201862, “PubChem BioAssay data set” (2004).
The source made the active and inactive calls.

How the values were obtained:
[1] = target: T1, Heat shock factor protein 1 (Mus musculus, UniProt P38532); assay: inhibition of MG132-induced HSE-luciferase signal, confirmation, cell-based, NIH3T3, luminescence, dose retest (AID 2382); format: functional;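 also: NIH3T3 fibroblasts with HSF1-driven luciferase reporter stressed by proteasome inhibitor MG132; luminescence from HSF1-driven luciferase expression after 8 hours of MG132 stress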
T1 sequence (P38532 whole entry): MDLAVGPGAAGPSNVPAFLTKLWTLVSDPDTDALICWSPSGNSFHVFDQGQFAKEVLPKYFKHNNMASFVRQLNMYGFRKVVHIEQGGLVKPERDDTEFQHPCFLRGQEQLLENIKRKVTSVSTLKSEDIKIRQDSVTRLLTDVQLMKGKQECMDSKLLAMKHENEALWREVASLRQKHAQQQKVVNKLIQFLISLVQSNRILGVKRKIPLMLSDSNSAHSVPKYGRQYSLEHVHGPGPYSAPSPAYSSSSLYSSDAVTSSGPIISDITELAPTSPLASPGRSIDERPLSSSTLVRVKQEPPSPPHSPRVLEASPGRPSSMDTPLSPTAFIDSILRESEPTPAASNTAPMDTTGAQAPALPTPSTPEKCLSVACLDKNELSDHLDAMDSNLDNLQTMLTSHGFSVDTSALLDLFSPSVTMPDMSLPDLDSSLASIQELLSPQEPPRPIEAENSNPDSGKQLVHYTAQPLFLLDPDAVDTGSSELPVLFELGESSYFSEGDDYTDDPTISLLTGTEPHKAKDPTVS

Protein RecA = target: T2, Protein RecA (Mycobacterium tuberculosis, UniProt P9WHJ3); assay: Fluorescence Cell-Free Homogeneous Dose Retest to Identify Inhibitors of RecA-Intein Splicing Activity. [Related pubchem assays (depositor defined):AID2097, AID2223, AID489010, AID492950]; format: functional
T2 sequence (P9WHJ3 whole entry): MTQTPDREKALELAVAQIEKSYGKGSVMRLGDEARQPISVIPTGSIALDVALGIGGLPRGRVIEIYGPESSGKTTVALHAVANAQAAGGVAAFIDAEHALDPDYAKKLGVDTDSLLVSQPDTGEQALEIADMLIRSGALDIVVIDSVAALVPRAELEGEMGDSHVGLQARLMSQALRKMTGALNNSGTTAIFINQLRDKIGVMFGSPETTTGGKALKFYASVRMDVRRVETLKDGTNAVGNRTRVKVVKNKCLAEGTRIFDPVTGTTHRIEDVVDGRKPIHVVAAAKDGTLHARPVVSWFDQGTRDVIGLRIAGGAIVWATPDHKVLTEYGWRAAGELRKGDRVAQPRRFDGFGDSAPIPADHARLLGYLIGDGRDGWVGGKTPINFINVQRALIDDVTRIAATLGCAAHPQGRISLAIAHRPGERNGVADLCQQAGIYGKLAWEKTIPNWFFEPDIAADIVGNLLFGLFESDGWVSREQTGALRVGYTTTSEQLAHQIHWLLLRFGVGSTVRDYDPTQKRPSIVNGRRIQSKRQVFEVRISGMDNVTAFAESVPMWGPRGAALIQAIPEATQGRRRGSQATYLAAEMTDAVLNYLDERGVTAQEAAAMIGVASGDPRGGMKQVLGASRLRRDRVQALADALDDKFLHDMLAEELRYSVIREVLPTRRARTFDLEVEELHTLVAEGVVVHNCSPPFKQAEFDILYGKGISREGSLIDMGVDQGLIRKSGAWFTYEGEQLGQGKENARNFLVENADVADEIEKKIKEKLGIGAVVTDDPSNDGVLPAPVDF

[2] = target: T3, Replicative DNA helicase DnaB (Mycobacterium tuberculosis, UniProt P9WMR3); assay: DnaB intein splicing inhibitors, dose response, biochemical, cell-free fluorescence (AID 449749); format: functional
T3 sequence (P9WMR3 whole entry): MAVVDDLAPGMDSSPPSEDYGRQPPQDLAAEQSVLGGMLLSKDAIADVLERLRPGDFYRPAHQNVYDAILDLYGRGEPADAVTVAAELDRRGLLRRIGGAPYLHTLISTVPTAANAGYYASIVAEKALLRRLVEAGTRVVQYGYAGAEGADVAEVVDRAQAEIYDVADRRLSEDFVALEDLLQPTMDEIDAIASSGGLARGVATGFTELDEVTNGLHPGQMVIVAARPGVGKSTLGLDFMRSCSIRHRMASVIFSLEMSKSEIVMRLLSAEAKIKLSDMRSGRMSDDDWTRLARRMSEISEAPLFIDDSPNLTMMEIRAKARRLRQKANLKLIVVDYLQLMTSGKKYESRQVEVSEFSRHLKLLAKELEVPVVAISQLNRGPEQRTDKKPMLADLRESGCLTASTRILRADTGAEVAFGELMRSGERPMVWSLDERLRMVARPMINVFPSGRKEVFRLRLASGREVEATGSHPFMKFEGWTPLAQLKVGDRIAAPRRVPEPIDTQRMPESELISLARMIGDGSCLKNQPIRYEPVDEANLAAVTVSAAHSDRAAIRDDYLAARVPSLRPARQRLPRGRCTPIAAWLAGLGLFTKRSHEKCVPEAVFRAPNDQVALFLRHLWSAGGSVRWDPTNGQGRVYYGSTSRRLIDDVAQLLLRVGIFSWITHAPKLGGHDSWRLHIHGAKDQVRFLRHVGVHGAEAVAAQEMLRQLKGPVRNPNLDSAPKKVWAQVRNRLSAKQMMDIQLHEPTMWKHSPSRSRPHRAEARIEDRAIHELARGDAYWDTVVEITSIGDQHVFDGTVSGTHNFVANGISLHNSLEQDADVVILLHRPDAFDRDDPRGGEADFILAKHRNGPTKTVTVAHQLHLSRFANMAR

Cytochrome P450 3A4 = Cytochrome P450 3A4 (Homo sapiens, UniProt P08684);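 also: CYP3A4 tested as one member of a cytochrome P450 panel screen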
Sequence of Cytochrome P450 3A4 (P08684 whole entry): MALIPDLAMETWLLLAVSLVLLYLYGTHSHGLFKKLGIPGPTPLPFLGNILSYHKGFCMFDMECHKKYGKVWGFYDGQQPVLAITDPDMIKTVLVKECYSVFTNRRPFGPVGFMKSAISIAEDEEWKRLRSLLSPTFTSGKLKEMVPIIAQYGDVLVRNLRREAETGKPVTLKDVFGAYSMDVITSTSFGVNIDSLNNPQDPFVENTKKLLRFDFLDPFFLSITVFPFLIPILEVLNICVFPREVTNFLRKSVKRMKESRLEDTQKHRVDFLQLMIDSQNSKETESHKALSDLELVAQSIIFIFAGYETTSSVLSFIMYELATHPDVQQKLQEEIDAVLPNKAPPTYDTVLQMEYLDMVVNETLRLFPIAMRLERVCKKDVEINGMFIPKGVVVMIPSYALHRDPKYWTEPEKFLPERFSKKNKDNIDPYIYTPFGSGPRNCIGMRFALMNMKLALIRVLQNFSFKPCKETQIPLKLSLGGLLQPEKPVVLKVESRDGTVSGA

Cytochrome P450 2D6 = Cytochrome P450 2D6 (Homo sapiens, UniProt P10635);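 also: CYP2D6 member of a cytochrome P450 panel assay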
Sequence of Cytochrome P450 2D6 (P10635 whole entry): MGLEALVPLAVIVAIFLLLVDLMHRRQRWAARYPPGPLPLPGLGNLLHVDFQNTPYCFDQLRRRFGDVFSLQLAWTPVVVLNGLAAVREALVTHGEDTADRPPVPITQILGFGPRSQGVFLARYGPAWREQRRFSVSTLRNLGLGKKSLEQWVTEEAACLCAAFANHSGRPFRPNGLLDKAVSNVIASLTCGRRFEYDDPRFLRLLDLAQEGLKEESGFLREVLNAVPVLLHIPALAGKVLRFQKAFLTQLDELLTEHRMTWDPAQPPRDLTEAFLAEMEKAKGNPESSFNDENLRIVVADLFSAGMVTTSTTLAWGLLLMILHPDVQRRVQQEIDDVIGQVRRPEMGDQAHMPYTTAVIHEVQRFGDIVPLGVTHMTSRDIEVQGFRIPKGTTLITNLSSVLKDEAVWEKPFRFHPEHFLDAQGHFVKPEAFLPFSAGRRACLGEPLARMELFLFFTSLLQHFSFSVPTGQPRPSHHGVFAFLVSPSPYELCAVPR

Cytochrome P450 2C19 = Cytochrome P450 2C19 (Homo sapiens, UniProt P33261); assay: Cytochrome panel assay with activity outcomes. Panel member name: p450-cyp2c19 Compounds with AC50 equal or less than 10 uM are considered active; format: functional; settings: read-out: AC50
Sequence of Cytochrome P450 2C19 (P33261 whole entry): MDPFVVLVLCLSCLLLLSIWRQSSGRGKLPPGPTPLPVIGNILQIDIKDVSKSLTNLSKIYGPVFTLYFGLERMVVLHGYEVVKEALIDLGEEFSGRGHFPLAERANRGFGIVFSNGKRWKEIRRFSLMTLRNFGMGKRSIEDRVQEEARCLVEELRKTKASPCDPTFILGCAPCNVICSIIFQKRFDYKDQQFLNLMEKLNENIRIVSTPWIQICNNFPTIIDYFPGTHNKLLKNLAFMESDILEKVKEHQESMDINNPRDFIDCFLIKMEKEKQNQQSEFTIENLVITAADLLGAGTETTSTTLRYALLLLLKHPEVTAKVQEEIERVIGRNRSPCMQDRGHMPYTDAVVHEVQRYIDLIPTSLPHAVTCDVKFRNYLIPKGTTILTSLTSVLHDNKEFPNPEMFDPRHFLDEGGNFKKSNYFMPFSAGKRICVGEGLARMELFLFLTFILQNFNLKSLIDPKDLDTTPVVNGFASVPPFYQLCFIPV

Cytochrome P450 1A2 = target: T4, Cytochrome P450 1A2 (Homo sapiens, UniProt P05177);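 also: PubChem cytochrome P450 panel assay, CYP1A2 panel member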
T4 sequence (P05177 whole entry): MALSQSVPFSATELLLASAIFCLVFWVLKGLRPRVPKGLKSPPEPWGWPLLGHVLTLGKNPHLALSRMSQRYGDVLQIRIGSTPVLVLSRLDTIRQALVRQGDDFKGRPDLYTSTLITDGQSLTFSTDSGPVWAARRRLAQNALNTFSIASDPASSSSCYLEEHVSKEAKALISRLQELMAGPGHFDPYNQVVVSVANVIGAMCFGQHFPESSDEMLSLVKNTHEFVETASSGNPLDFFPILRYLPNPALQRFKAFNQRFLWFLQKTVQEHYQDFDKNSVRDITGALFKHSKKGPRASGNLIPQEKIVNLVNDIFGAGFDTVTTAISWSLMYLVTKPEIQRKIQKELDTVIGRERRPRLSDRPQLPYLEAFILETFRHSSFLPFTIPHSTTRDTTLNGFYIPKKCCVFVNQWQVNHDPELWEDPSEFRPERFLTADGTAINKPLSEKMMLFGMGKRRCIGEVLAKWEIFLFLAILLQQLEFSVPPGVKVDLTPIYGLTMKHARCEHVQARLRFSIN

Row | Compound | EC50 [1] | AC50 (Cytochrome P450 2D6) | further results
1 | N#C/C(=C\c1ccccn1)c1ccccn1 | > 195 µM (not active) | – | –
2 | Cc1ccc(N(Cc2cc3ccc(C)cc3nc2O)C(=O)c2cccs2)cc1 | > 195 µM (not active) | – | –
3 | Cc1onc(-c2c(F)cccc2Cl)c1C(=O)c1ccccc1 | > 195 µM (not active) | – | –
4 | CCCNC(=O)c1ccc(N2CCC3(CC2)CC(c2cccc(Br)c2)=NO3)c(NC(=O)c2ccc(Br)cc2)c1 | > 195 µM (not active) | – | –
5 | Cc1ccc(NC2=NC(=O)/C(=C\c3cccs3)S2)cc1C | > 195 µM (not active) | – | –
6 | O=C(NC1CCCC1)C(c1ccc(F)cc1)N(Cc1ccc(F)cc1)C(=O)CCl (stereo not given) | – | – | EC50 (Protein RecA): 0.557 µM (active); AC50 [2]: 4.67 µM (active)
7 | CCCCn1c(C(C)NC(=O)CC)nc2ccccc21 (stereo not given) | > 195 µM (not active) | – | –
8 | Cc1c2cccc(Sc3ccccc3)c2c2c3c(cccc13)[S+](c1ccccc1)C2 (stereo not given) | – | 5.01 µM (inconclusive) | AC50 (Cytochrome P450 3A4): 3.16 µM (inconclusive)
9 | COc1ccc(C2=NN(c3nc(C)cc(C)n3)C(=O)C2)cc1 | – | – | EC50 (Protein RecA): 2.81 µM (active); AC50 [2]: 4.53 µM (active)
10 | Cn1c(C(=O)O)c(CC(=O)Nc2ccc3c(c2)OCCO3)c2ccccc21 | 1.95 µM (active) | – | –
11 | COc1cccc(N(CC(=O)Nc2cccnc2)S(C)(=O)=O)c1 | > 195 µM (not active) | – | –
12 | COc1ncc2nc(-c3cccs3)c(=O)n(Cc3cccs3)c2n1 | – | 3.98 µM (inconclusive) | –
13 | O=C(CSc1ccccn1)Nc1nc2ccc(Br)cc2s1 | – | 15.8 µM (inconclusive) | AC50 (Cytochrome P450 3A4): 22.4 µM (inconclusive)
14 | Cc1noc(C)c1-c1cc(NC2CC2)ncn1 | – | 20 µM (inconclusive) | AC50 (Cytochrome P450 3A4): 25.1 µM (inconclusive); AC50 (Cytochrome P450 2C19): 31.6 µM (inconclusive)
15 | C[C@@H]1CC=C[C@H]2[C@H]1C(=O)N(Cc1ccccc1)[C@H]2c1ccc(C(F)(F)F)cc1 | – | – | EC50 (Protein RecA): 87 µM (active); AC50 [2]: 22.3 µM (active)
16 | O=[N+]([O-])c1cccc(-c2nnc(-c3ccccc3)o2)c1 | > 195 µM (not active) | – | –
17 | CC(=O)N1CCC2(CC1)CCN(c1cccc(-c3ccccc3)c1)CC2 | – | 31.6 µM (inconclusive) | –
18 | CON(c1nc(N(C)C)nc(N(C)C)n1)S(=O)(=O)c1ccccc1Cl | – | 25.1 µM (inconclusive) | AC50 (Cytochrome P450 1A2): 14.1 µM (inconclusive)
19 | Cc1n[nH]c2c1C(CCc1ccccc1)C(C#N)=C(N)O2 (stereo not given) | – | – | EC50 (Protein RecA): 6.58 µM (active); AC50 [2]: 24.9 µM (active)
20 | COc1ccc(NS(=O)(=O)NC(=O)c2cn(C)c3ccccc23)cc1 | > 195 µM (not active) | – | –

Row | Compound | EC50 [1] | AC50 (Cytochrome P450 2D6) | further results
21 | Cc1cccc(CNc2ccnc(-c3cccc(NS(C)(=O)=O)c3)n2)c1 | – | 39.8 µM (inconclusive) | –
22 | CCn1c(SCC(=O)N(C)C2CCS(=O)(=O)C2)nnc1-c1cccs1 (stereo not given) | > 195 µM (not active) | – | –
23 | Cc1cc(Cc2cc(Cc3cc(C)cc(C(C)(C)C)c3O)c(C)cc2C)c(O)c(C(C)(C)C)c1 | – | 3.98 µM (inconclusive) | –
24 | CC(Sc1nc(NCc2ccccc2)nc(N(C)C)n1)C(=O)Nc1ccccc1 (stereo not given) | – | 15.8 µM (inconclusive) | –
25 | CC1CN(C(=O)Nc2ccc3c(c2)OCCO3)CC(C)O1 (stereo not given) | > 195 µM (not active) | – | –
26 | O=c1cc(C2CCNCC2)[nH][nH]1 | – | – | EC50 (Protein RecA): 1.41 µM (active); AC50 [2]: 3.73 µM (active)
27 | Cc1ccccc1-c1cc(Nc2ccc(F)cc2)ncn1 | – | 31.6 µM (inconclusive) | AC50 (Cytochrome P450 3A4): 39.8 µM (inconclusive)
28 | O=C1c2ccccc2C(Nc2ccc3c(c2)OCCO3)N1c1ccccn1 (stereo not given) | 57.5 µM (active) | – | –
29 | O=C(O)c1cccc(N2C(=O)/C(=C/c3ccc([N+](=O)[O-])cc3)C=C2c2ccccc2)c1 | > 195 µM (not active) | – | –
30 | COc1ccc(-n2c(=O)c3ccccc3c3ccccc3c2=O)cc1 | – | – | EC50 (Protein RecA): 23.3 µM (active); AC50 [2]: 10.1 µM (active)
31 | Cc1cc2ccccc2c(=O)n1CC(=O)Nc1ccc2c(c1)OCO2 | > 195 µM (not active) | – | –
32 | CSc1ccccc1NC(=O)C1=CC(c2ccc(C)cc2)=NS(=O)(=O)N1C | > 195 µM (not active) | – | –
33 | Cc1ccccc1-c1nccc(NCCN2CCOCC2)n1 | – | 31.6 µM (inconclusive) | –
34 | CC(=O)Cc1c[nH]c2ccccc12 | > 195 µM (not active) | – | –
35 | CS(=O)(=O)Nc1cccc(-c2nccc(NCc3cccs3)n2)c1 | – | 25.1 µM (inconclusive) | AC50 (Cytochrome P450 2C19): 25.1 µM (inconclusive)
36 | O=C(CSc1ccc(Br)cc1)Nc1ccccc1N1CCOCC1 | > 195 µM (not active) | – | –
37 | O=C(c1ccncc1)N1CCC2(CC1)CN(c1ncccn1)C2 | – | 20 µM (inconclusive) | AC50 (Cytochrome P450 1A2): 6.31 µM (inconclusive)
38 | O=C(CCN1C(=O)/C(=C/c2cccs2)SC1=S)Nc1cccc(O)c1 | – | – | EC50 (Protein RecA): 125 µM (active); AC50 [2]: 1.64 µM (active)
39 | Cc1[nH]n(C)c(=O)c1C(=O)c1c(-c2ccccc2Cl)noc1C | – | – | EC50 (Protein RecA): 2.61 µM (active); AC50 [2]: 6.51 µM (active)
